{"source": "patent US20260337125A1", "about": "“RADIOLABELED TYROSINE DERIVATIVE AND APPLICATION THEREOF” (Osaka University, priority 2022, published 2026)", "key": {"[1]": {"assay": "TLC analysis of stability after purification", "type": "physicochemical", "conditions": "24 hours after purification, in sodium ascorbate aqueous solution (final concentration 1%)", "description": "The crude product solution (1 μL) was analyzed by thin-layer chromatography (TLC). The sample was spotted on a thin-layer plate (silica gel 60F254), and a mixed solvent of acetonitrile/water (2/1) was used as a developing solvent. The thin-layer plate was exposed to an imaging plate (BAS IP MS 2025E, GE Healthcare) for about 15 min, and then analyzed by a bioimage analyzer (Tyhoon™ FLA-7000, Cytiva). The results are shown in FIG. 2. ^211At-AAMT-OMe in the crude product solution was detected at Rf 0.80, and the radiochemical yield (RCY) was 81.3%.\n(§1) The crude product solution was injected into an HLB column (Oasis, WAT-186005125) equilibrated with sterile distilled water (1 mL) to capture the target product in the cartridge, and sterile distilled water was passed through the cartridge to elute impurities. Next, 30% ethanol solution (500 μL) was passed through the cartridge to elute the target product into sodium ascorbate aqueous solution (500 μL, final concentration 1%), thus obtaining the purified product. The radiochemical yield and radiochemical purity of the purified product were 81% and 98%, respectively.\nBefore purification, immediately after production, 3 hours after production, and 24 hours after production, ^211At-AAMT-OMe was analyzed by thin-layer chromatography (TLC) in the same manner as described above.\nas §1, with “product. This purified product was analyzed by thin-layer chromatography (TLC) in the same manner as described above.” for “product.”, “79.6%” for “81%”, “99.9%,” for “98%,”\n24 hours after production, (R)-^211At-AAMT-OMe was analyzed by thin-layer chromatography (TLC) in the same manner as described above.\nas §1, with “product. This purified product was analyzed by thin-layer chromatography (TLC) in the same manner as described above.” for “product.”, “75.9%” for “81%”, “99.27%,” for “98%,”\n24 hours after production, ^211At-AAMT-OEt was analyzed by thin-layer chromatography (TLC) in the same manner as described above.\nThe crude product solution was injected into an HLB column (Oasis, WAT-186005125) equilibrated with sterile distilled water (1 mL) to capture the target product in the cartridge, and sterile distilled water was passed through the cartridge to elute impurities. […] This purified product was analyzed by thin-layer chromatography (TLC) in the same manner as described above. […]\n24 hours after production, ^211At-AAMT-OPr was analyzed by thin-layer chromatography (TLC) in the same manner as described above. […]"}, "[2]": {"biological_target": "HEK293-hLAT1 (Homo sapiens, UniProt Q01650)", "sequence (Q01650 whole entry)": "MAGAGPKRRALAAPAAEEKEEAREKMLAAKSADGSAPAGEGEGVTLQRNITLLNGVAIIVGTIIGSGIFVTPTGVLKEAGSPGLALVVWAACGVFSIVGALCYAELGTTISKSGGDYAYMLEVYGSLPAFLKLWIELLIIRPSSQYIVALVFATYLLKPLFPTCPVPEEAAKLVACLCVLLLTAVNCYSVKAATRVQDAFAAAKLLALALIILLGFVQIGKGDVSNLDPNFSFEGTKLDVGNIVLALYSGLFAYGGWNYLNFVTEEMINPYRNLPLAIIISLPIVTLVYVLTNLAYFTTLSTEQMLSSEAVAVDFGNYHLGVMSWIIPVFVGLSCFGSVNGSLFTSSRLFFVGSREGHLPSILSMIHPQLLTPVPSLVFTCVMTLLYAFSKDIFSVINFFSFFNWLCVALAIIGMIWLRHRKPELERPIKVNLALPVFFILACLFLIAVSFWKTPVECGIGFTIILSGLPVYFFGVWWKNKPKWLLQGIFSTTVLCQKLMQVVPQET", "sequence (P08195 102-630 partner)": "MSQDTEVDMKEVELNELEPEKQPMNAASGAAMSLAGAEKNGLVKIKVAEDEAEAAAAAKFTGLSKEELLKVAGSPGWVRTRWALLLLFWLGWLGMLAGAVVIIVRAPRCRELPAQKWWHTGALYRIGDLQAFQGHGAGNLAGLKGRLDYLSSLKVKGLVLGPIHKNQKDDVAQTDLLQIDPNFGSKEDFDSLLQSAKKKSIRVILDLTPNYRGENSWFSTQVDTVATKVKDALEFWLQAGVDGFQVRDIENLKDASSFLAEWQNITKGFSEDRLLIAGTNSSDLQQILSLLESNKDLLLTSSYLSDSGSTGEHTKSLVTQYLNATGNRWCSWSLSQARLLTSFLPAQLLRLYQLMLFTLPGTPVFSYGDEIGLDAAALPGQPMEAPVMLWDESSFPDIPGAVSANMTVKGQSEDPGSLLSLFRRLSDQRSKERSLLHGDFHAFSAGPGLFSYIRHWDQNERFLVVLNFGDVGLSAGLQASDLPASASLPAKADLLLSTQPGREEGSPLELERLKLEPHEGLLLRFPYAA", "assay": "Cellular uptake test (Using HEK293)", "type": "cell-based", "conditions": "inhibitor added 15 minutes before; BCH 20 mM or unlabeled AMT 1 μg/mL", "description": "• Cells to be Used: HEK293-Mock, HEK293-hLAT1, HEK293-hLAT2 (HEK293: Human Embryonic Kidney cells 293) • Culture medium to be used: E-MEM (containing 10% FBS, 1% P/S, 1% NEAA)\n(§2) Two days before a test day, a cell suspension was prepared in such a manner that the concentration of predetermined cells was 1×10^5 cells/mL. The cell suspension was seeded in a 24-well multiculture plate at a volume of 0.5 mL per well. On the day of the test, cultures were confirmed to be subconfluent (which refers to a state where 70-80% of the well is covered in density). The cells were washed twice with warmed PBS(-) Buffer (166-23555, FUJIFILM Wako Pure Chemical Corporation), the culture medium was replaced with HBSS(-) Buffer (085-09355, FUJIFILM Wako Pure Chemical Corporation), and the plate was left to stand in an incubator (MINIcell-35, WakenBtech Co., Ltd) until an RI addition test.\n(§3) ^211At-AAMT-OMe or ^211At-AAMT was added to the prepared cells at 10 μL/well. BCH (LAT1 inhibitor, 20 mM) or unlabeled AMT (α-methyl tyrosine, 1 μg/mL) was previously (15 minutes before) added ([…]). The cells were cultured (CO2 5%, 37 °C), and after 30 minutes, the liquid was removed by suction using an aspirator. The cells were washed twice with PBS(-). The cells were lysed by adding 0.1N NaOH to obtain a lysate, and the radioactivity of the lysate was measured using a γ counter. After the radioactivity measurement, the lysate was loaded into a 96-well plate at a volume of 10 μL per well, the protein amount was measured by the BCA method, and the number of cells was corrected based on the protein amount. Absorbance was measured by MultiScanFC (Thermo Fisher). The uptake level of ^211At-AAMT-OMe or ^211At-AAMT into the cells (number of radioactivity counts/protein amount) was calculated."}, "[3]": {"system": "CDDP-resistant A549 (A549 CDDP-r)", "assay": "Cell viability of CDDP-resistant A549 (A549 CDDP-r) with CDDP", "type": "cell-based, human", "conditions": "CDDP 100 μg/mL", "description": "Cisplatin (CDDP) was added to a human lung cancer cell line, A549 at an initial concentration of 1 μg/mL. After 3 days, dead cells were removed, and CDDP was again added. Cells that grew like A549 even in the presence of CDDP were isolated and maintained for 3 months while gradually increasing the concentration of CDDP in a culture medium."}, "[4]": {"assay": "Measurement of accumulated amounts of 211At-labeled compounds in PANC1 tumor-bearing mice", "type": "in vivo, human (PANC1) in Balb/c-nu/nu mice", "conditions": "tumor, iv, 0.1 MBq/animal, 0.1 MBq/0.2 mL per mouse, tail vein, read-out: tumor accumulation; for tissue uptake at 10 min: 10 minutes after administration; for tissue uptake at 1 h: 1 hour after administration", "description": "(§4) Radiation doses before and after the administration were measured, and a difference between them was defined as an injected dose (ID). Ten minutes and one hour after administration, the mice were anesthetized by isoflurane inhalation, the tumors were isolated by autopsy in chronological order, and their radiation doses and weights were measured using a gamma counter (2480 Wizard^2, PerkinElmer) and a semimicro scale (Shimadzu Corporation, readability 10 μg), respectively. For comparison between accumulated amounts, accumulated amounts per unit amount (% ID/g) were calculated.\n(§5) In Table 1, the amounts of the ^211At-labeled compounds accumulated in tumors of the PANC1 tumor-bearing models (% ID/g) are shown. It should be noted that in Table 1, “OMe” is ^211At-AAMT-OMe, “OEt” is ^211At-AAMT-OEt, “OPr” is ^211At-AAMT-OPr, and “OH” is ^211At-AAMT."}, "[5]": {"system": "PANC1 tumor", "assay": "Measurement of accumulated amounts of 211At-labeled compounds in PANC1 tumor-bearing mice", "type": "in vivo, human (PANC1) in Balb/c-nu/nu mice", "conditions": "for accumulation in the tumor sites compared to 211At-AAMT: 10 minutes and 1 hour after administration, tail vein; for retention at tumor sites: compared to 211At-AAMT", "description": "as §4, §5"}, "[6]": {"system": "PANC1", "assay": "Cellular uptake test (Using PANC1)", "type": "cell-based, human", "conditions": "for uptake speed: PANC1 cells, uptake level immediately after addition", "description": "• Cells to be used: PANC1 • Culture medium to be used: D-MEM (containing 10% FBS, 1% P/S)\nas §2, with “cells/mL in the same manner as in Test Example 1.” for “cells/mL.”\nas §3, with “^211At-AAMT-OMe, ^211At-AAMT-OEt, ^211At-AAMT-OPr, or” for “^211At-AAMT-OMe or”, “of ^211At-AAMT-OMe, ^211At-AAMT-OEt, ^211-At-AAMT-OPr,” for “of ^211At-AAMT-OMe”"}, "[7]": {"system": "human pancreatic cancer cell line (PANC1)", "type": "in vivo, human (PANC1) in Balb/c-nu/nu mice", "conditions": "1 MBq/0.2 mL per mouse, tail vein", "from_the_text": "The experiment was terminated 21 days after administration."}, "[8]": {"system": "gemcitabine-resistant human pancreatic cancer cell line, PANC1 (PANC1 Gem-r)", "assay": "Cell viability of Gemcitabine-resistant PANC1 (PANC1 Gem-r) with gemcitabine", "type": "cell-based", "conditions": "gemcitabine 30 μg/mL", "description": "Gemcitabine (Gem) was added to a human pancreatic cancer cell line, PANC1 at an initial concentration of 100 ng/mL. After 3 days, dead cells were removed, and gemcitabine was again added. Cells that grew like a human pancreatic cancer cell line, PANC1 even in the presence of gemcitabine were isolated and maintained for 3 months while gradually increasing the concentration of gemcitabine in a culture medium."}, "[9]": {"conditions": "up to 21 days after administration"}}, "data": [{"smiles": "COc1ccc(C[C@@](C)(N)C(=O)O)cc1[At]", "note": "[(R)-^211At-AAMT-OMe, (R)-3-astato(^211At)—O-methyl-α-methyltyrosine]", "values": [{"measurement": "decomposition by TLC", "setting": "[1]", "result": "no decomposition"}]}, {"smiles": "C[C@](N)(Cc1ccc(O)cc1)C(=O)O", "note": "[AMT, α-methyl tyrosine, reference compound]", "values": [{"measurement": "inhibition of uptake of 211At-AAMT-OMe into HEK293-hLAT1 cells", "setting": "[2]", "result": "significantly inhibited"}]}, {"smiles": "NC1(C(=O)O)CC2CCC1C2", "note": "(stereo not shown) [BCH, 2-aminobicyclo[2,2,1]heptane-2-carboxylic acid, reference compound]", "values": [{"measurement": "inhibition of uptake of 211At-AAMT-OMe into HEK293-hLAT1 cells", "setting": "[2]", "result": "significantly inhibited"}]}, {"smiles": "[NH2][Pt]([NH2])([Cl])[Cl]", "note": "[CDDP, Cisplatin]", "values": [{"measurement": "cell viability", "setting": "[3]", "result": "still alive even at 100 μg/mL"}]}, {"smiles": "COc1cc(C[C@](C)(N)C(=O)O)ccc1[At]", "note": "[^211At-AAMPhe-OMe, (S)-α-methyl-4-astato(^211At)-3-methoxyphenylalanine]", "values": [{"measurement": "decomposition by TLC", "setting": "[1]", "result": "no decomposition"}, {"measurement": "tissue uptake at 10 min", "setting": "[4]", "result": 3.77, "unit": "%ID/g"}, {"measurement": "tissue uptake at 1 h", "setting": "[4]", "result": 6.38, "unit": "%ID/g"}, {"measurement": "accumulation in the tumor sites compared to 211At-AAMT", "setting": "[5]", "result": "more highly accumulated in the tumor sites than ^211At-AAMT"}]}, {"smiles": "CCOc1ccc(C[C@](C)(N)C(=O)O)cc1[At]", "note": "[^211At-AAMT-OEt, (S)-3-astato(^211At)—O-ethyl-α-methyltyrosine]", "values": [{"measurement": "decomposition by TLC", "setting": "[1]", "result": "no decomposition"}, {"measurement": "uptake level into cells (number of radioactivity counts/protein amount)", "setting": "[6]", "result": "comparable or superior"}, {"measurement": "uptake speed", "setting": "[6]", "result": "comparable or superior"}, {"measurement": "tissue uptake at 10 min", "setting": "[4]", "result": 4.21, "unit": "%ID/g"}, {"measurement": "tissue uptake at 1 h", "setting": "[4]", "result": 3.59, "unit": "%ID/g"}, {"measurement": "accumulation in the tumor sites compared to 211At-AAMT", "setting": "[5]", "result": "more highly accumulated in the tumor sites than ^211At-AAMT"}, {"measurement": "retention at tumor sites", "setting": "[5]", "result": "superior retention at tumor sites compared to ^211At-AAMT"}, {"measurement": "apparent toxicity", "setting": "[7]; 21 days", "result": "apparent toxicity induced by their administration was not observed"}, {"measurement": "lesions other than tumor at autopsy", "setting": "[7]; 21 days", "result": "lesions other than tumor were not observed"}, {"measurement": "mouse body weight", "setting": "[7]; [9]", "result": "gently increased"}, {"measurement": "tumor growth inhibiting effect", "setting": "[7]; [9]", "result": "comparable to that of the ^211At-AAMT-OMe administration group"}]}, {"smiles": "CCCOc1ccc(C[C@](C)(N)C(=O)O)cc1[At]", "note": "[^211At-AAMT-OPr, (S)-3-astato(^211At)—O-propyl-α-methyltyrosine]", "values": [{"measurement": "decomposition by TLC", "setting": "[1]", "result": "no decomposition"}, {"measurement": "uptake level into cells (number of radioactivity counts/protein amount)", "setting": "[6]", "result": "comparable or superior"}, {"measurement": "uptake speed", "setting": "[6]", "result": "comparable or superior"}, {"measurement": "tissue uptake at 10 min", "setting": "[4]", "result": 5.91, "unit": "%ID/g"}, {"measurement": "tissue uptake at 1 h", "setting": "[4]", "result": 9.45, "unit": "%ID/g"}, {"measurement": "accumulation in the tumor sites compared to 211At-AAMT", "setting": "[5]", "result": "more highly accumulated in the tumor sites than ^211At-AAMT"}, {"measurement": "tumor accumulation, ranking", "setting": "[5]; 1 hour after administration", "result": "most highly accumulated 1 hour after administration"}, {"measurement": "retention at tumor sites", "setting": "[5]", "result": "superior retention at tumor sites compared to ^211At-AAMT"}]}, {"smiles": "Nc1ccn([C@@H]2O[C@H](CO)[C@@H](O)C2(F)F)c(=O)n1", "note": "[gemcitabine, Gemcitabine]", "values": [{"measurement": "cell viability", "setting": "[8]", "result": "still alive even at 30 μg/mL"}]}]}
